Data on 1 molecule can be found in patent publication US20190350964A1, “ANTI-CANCER COMPOUNDS AND USES THEREOF” (NATIONAL UNIVERSITY OF SINGAPORE, priority 2016, published 2019).

Assay [1] concerns the target T1, Retinal rod rhodopsin-sensitive cGMP 3′,5′-cyclic phosphodiesterase subunit delta (Homo sapiens, UniProt O43924).
T1 construct: After collecting data covering >8,000 proteins in lysates of normal BJ cells; endogenous in cells; host or cells: normal BJ cells, lysate
Put plainly: MS-CETSA in normal BJ cell lysates. It is filed as binding. The following applies: lysate, 100 μM compound.
Protocol: (§2) Target identification was performed by cellular thermal shift assay (CETSA) coupled with quantitative mass spectrometry. In brief, normal BJ cells were lysed by combination of freeze/thaw and mechanical shearing with needle in buffer [50 mM HEPES (pH 7.5), 5 mM β-glycerophosphate, 0.1 mM Sodium Vanadate, 10 mM MgCl2, 1 mM TCEP and 1× Protease inhibitor Cocktail]. The cell debris was removed by centrifugation at 20,000 g for 20 min at 4° C. […] Each lysate was divided into 10 aliquots for heat treatment at the respective temperatures for 3 min in a 96-well thermocycler, followed by 3 min at 4° C. The lysate was centrifuged at 20,000 g for 20 min at 4° C. and the supernatant was transferred into microtubes for MS sample preparation.
(§3) After lysis, at least 100 μg of the protein (measured with a BCA assay) was subjected to reduction, denaturation and alkylation. Samples were subsequently incubated with sequencing grade LysC (Wako) and trypsin (Promega) for digestion overnight at 37° C. The digested samples were dried using a centrifugal vacuum evaporator, solubilized in 100 mM TEAB. […]
(§4) Proteins for which a low temperature plateau was not present were deleted using a cut off >0.85 for the average reading of the first three temperature points (in our experience proteins melting already at −37° C. are more prone to give false positives in a shift analysis).

The test system of assay [2] is normal BJ cells with activated H-RasV12-ER. Put plainly: FACS subG1 in engineered BJ-derived fibroblasts. Particulars: 5 μM, 48 h. It is filed as cell-based, human. How it is done: Isogenic BJ human foreskin fibroblast cell lines, including non-transformed (normal) and transformed BJ cells and all gastric cancer cell lines, were kind gifts from Dr. Mathijs Voorhoeve and Dr. Patrick Tan (Duke-NUS), respectively and tested for mycoplasma infection. All other human cancer cell lines used in this study were purchased from ATCC and cultured in accordance with ATCC's instructions. H-RasV12-ER was activated by exposing the BJ-derived fibroblasts to 4-OHT (100 nM, Sigma-Aldrich). Three different sets of siRNAs were used in this study to target PI5P4K isoform DNA sequences as follows:
Cell death was assessed via Annexin V and/or PI (propidium iodide) staining according to the manufacturer's instructions (eBioscience). Cell growth arrest was assessed by direct measurement of DNA synthesis through incorporation of the nucleoside analog bromodeoxyuridine (BrdU). Briefly, BrdU (30 μM, Sigma-Aldrich) was added for 2 h before harvesting cells. […] Stained cells were analyzed by MACSQuant (MACS). […] The percentage of Annexin V/PI- or BrdU-positive cells was quantified using Flow Jo software (Becton Dickinson). Where indicated, the combined activity of caspase-3/7 was determined using the caspase-Glo 3/7 Assay Kit (Promega) and normalized to the number of viable cells as determined by MTT assay.

Assay [3] addresses T2, Isoform 2 of Ferrochelatase, mitochondrial (Homo sapiens, UniProt P22830).
T2 construct: After collecting data covering >8,000 proteins in lysates of normal BJ cells; endogenous in cells; host or cells: normal BJ cells (hTert-immortalised human foreskin fibroblasts), lysate
Put plainly: MS-CETSA in normal BJ cell lysates. It is filed as binding. The following applies: Uniprot P22830-2, lysate, 100 μM compound.
Protocol: as §2, §3, §4

In assay [4] the target is T3, Phosphatidylinositol 5-phosphate 4-kinase type-2 gamma (Homo sapiens, UniProt Q8TBX8).
T3 construct: After collecting data covering >8,000 proteins in lysates of normal BJ cells; endogenous in cells; host or cells: normal BJ cells, lysate
Kind of assay: MS-CETSA in normal BJ cell lysates. It is filed as binding. Particulars: lysate, 100 μM compound.
Protocol: as §2, §3, §4

Assay [5] concerns U2OS. Kind of assay: MTT cytotoxicity test (GI50). It is filed as cell-based. Particulars: Homo sapiens, cancer, others, bone, MTT 72 h. A general note: Tetrazolium assays rely on reduction of a dye to a coloured formazan, in cell work by metabolically active cells.
For assay [6], the system named is WI38. Put plainly: MTT cytotoxicity test (GI50). It is filed as cell-based. The following applies: Homo sapiens, WI-38; WI38, normal, lung; MTT 72 h.
The test system of assay [7] is normal and transformed BJ cells. Kind of assay: a131 SAR analysis: pH3(Ser10) immunoblot, BrdU incorporation, subG1 FACS. It is filed as cell-based, human. Also on record: key: Group 1: possess the dual-inhibitory properties of both causing the arrest of normal BJ cells at the G1/S phase and also causing mitotic arrest/catastrophe in transformed BJ cells; Group 2: only cause the arrest of normal BJ cells at the G1/S phase; Group 3: cause mitotic arrest/catastrophe in transformed BJ cells, but do not arrest normal BJ cells at the G1/S phase; Group 4: are inactive or weakly active. Particulars: 5 μM, 48 h. How it is done: (§1) Cell death was assessed via Annexin V and/or PI (propidium iodide) staining according to the manufacturer's instructions (eBioscience). Cell growth arrest was assessed by direct measurement of DNA synthesis through incorporation of the nucleoside analog bromodeoxyuridine (BrdU). Briefly, BrdU (30 μM, Sigma-Aldrich) was added for 2 h before harvesting cells. Cells were subsequently stained with Pacific Blue-conjugated BrdU antibody (Invitrogen) for 1 h followed by PI staining. Stained cells were analyzed by MACSQuant (MACS). Three independent experiments were performed in triplicate. The percentage of Annexin V/PI- or BrdU-positive cells was quantified using Flow Jo software (Becton Dickinson). Where indicated, the combined activity of caspase-3/7 was determined using the caspase-Glo 3/7 Assay Kit (Promega) and normalized to the number of viable cells as determined by MTT assay.
Total cell lysates were prepared with 1% triton lysis buffer [25 mM Tris HCl (pH 8.0), 150 mM NaCl, 1% triton-X100, 1 mM dithiothreitol (DTT), protease inhibitor mix (Complete Mini, Roche) and phosphatase inhibitor (PhosphoStop, Roche)] and subjected to SDS-PAGE. The following antibodies were used for immunoblotting: anti-β-actin (Sigma-Aldrich), anti-cleaved PARP (Abcam, #ab32064), anti-PI5P4Kα (#5527), anti-PI5P4Kβ (#9694), anti-cleaved caspase-3 (#9664), anti-pHistone H3(Ser10) (#3377), anti-pAkt(S473) (#9271), anti-pAkt(T308) (#13038), anti-total Akt (#9272), anti-p70S6K(T389) (#9234), anti-total p70S6K (#9202), anti-pErk (#4370), anti-γ-Histone H2AX (#9718) (Cell signaling) and anti-PIK3IP1 (Proteintech, #16826-1-AP). The secondary antibodies used were sheep anti-mouse IgG HRP and donkey anti-rabbit IgG HRP (Amersham; 1:2000 dilution). Immunoreactive proteins were visualized using ECL reagent (Amersham). Where indicated, intensities of protein bands were quantified by densitometry (Odyssey V3.0), normalized to their loading controls and then calculated as fold expression change relative to DMSO control.

The test system of assay [8] is cancer cell lines. Put plainly: FACS of subG1 (PI) and Annexin V in cancer and normal cell lines. Particulars: 2.5 μM and 5 μM, 48 h. It is filed as cell-based, human. How it is done:
as §1

The subject of assay [9] is MCF7. Put plainly: MTT cytotoxicity test (GI50). It is filed as cell-based. The following applies: Homo sapiens; MCF7, cancer, breast; MTT 72 h.
The target of assay [10] is T4, Pyridoxal kinase (Homo sapiens, UniProt O00764).
T4 construct: After collecting data covering >8,000 proteins in lysates of normal BJ cells; endogenous in cells; host or cells: normal BJ cells, lysate
Put plainly: MS-CETSA in normal BJ cell lysates. It is filed as binding. Particulars: lysate, 100 μM compound.
Protocol: as §2, §3, §4

T2 sequence (P22830 55-429 isoform P22830-2 limits assumed): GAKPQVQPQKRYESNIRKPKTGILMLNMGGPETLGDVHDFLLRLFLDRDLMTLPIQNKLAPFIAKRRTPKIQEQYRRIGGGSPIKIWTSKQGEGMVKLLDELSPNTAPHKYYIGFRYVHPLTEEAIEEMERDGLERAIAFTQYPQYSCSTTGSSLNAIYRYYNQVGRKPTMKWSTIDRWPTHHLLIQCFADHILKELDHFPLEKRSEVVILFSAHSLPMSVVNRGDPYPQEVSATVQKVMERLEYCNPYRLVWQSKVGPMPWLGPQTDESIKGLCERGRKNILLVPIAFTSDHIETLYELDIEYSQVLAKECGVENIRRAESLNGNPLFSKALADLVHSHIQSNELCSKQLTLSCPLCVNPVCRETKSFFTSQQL
T4 sequence (O00764 whole entry): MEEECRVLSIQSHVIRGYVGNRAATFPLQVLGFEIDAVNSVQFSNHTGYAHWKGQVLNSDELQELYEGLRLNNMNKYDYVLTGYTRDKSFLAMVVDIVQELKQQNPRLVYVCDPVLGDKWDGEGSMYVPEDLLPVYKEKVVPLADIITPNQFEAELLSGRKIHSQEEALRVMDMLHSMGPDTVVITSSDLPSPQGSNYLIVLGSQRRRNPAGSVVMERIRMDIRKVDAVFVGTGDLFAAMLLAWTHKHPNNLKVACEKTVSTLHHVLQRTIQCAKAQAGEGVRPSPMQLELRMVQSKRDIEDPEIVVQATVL
T3 sequence (Q8TBX8 whole entry): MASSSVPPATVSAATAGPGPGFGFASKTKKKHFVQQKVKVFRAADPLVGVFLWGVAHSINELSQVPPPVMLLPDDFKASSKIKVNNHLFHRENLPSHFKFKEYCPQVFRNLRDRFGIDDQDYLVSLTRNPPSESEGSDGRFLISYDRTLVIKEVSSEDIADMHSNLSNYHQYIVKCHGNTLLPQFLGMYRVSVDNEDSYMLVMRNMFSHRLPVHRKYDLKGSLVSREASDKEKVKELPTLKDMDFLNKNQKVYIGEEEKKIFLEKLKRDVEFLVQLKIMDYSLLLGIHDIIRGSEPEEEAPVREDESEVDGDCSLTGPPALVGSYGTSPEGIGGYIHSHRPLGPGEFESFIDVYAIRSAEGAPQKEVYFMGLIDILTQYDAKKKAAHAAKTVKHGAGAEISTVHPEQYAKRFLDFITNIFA
T1 sequence (O43924 whole entry): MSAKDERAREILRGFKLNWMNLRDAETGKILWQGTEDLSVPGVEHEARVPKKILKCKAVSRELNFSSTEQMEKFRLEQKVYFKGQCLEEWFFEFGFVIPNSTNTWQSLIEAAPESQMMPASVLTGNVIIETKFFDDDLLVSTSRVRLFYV

Broadly, the GI50 is the concentration at which growth is held to half of that of the control. In the case of `N#C/C(=C\c1cccc2cnccc12)c1c[nH]c2ccccc12` [a131, (Z)-2-(1H-indol-3-yl)-3-(5-isoquinolyl)prop-2-enenitrile], the ED score in [1] was 0.3092; in [3], 0.8366; in [4], 0.5989; in assay [10], 0.4486. Besides, the ΔTm at 100 µM in [1] (read-out: mean Delta Tm) is 3.02 °C; in [3] (read-out: mean Delta Tm), 3.81 °C; in assay [4] (read-out: mean Delta Tm) it was 2.89 °C; in [10] (read-out: mean Delta Tm) it was 2.01 °C. The “a131-induced cell death after 4-OHT-induced activation of H-RasV12-ER” value in assay [2] is recorded as “sufficient to sensitize normal BJ cells to a131-induced cell death”. Also, the concentration for 50% growth inhibition (GI50) in assay [5] was 1.5 µM; in assay [6], 3.4 µM; in assay [9], 1.2 µM. Besides, the “Group (a131 SAR analysis)” value in [7] is given as “Group 1”. In [8], the “percentage of cells expressing Annexin V versus DMSO” value was “significantly higher (p<0.0001)”. For the same molecule, the “percentage of subG1 population versus DMSO” value in assay [8] (cancer cells) is reported as “significantly higher (p<0.0001)”.
